Reference: BindingDB's records for patent US12421225 (Kaken Pharmaceutical Co., 2025)

Target: Sodium channel protein type 9 subunit alpha (Homo sapiens, UniProt Q15858)
Assay: Human Nav1.7 Inhibitory Activity Evaluation
Description: The amount of current through human Nav1.7 was recorded using a fully automatic patch clamp device QPatch16X (Sophion Biosciences) at room temperature. As the extracellular solution, the solution of 145 mM NaCl, 4 mM KCl, 1 mM MgCl2, 2 mM CaCl2, 10 mM Glucose, 10 mM 4-(2-hydroxyethyl)-1-piperazine ethanesulfonic acid (HEPES) at pH 7.4 was used. As the intracellular solution, the solution of 135 mM CsF, ⅕ mM glycol ether diaminetetraacetic acid (EGTA)/CsOH, 10 mM HEPES, 10 mM NaCl at pH 7.3 was used. The test compounds were dissolved in dimethyl sulfoxide (DMSO) and diluted with the extracellular solution to attain the DMSO concentration of 0.1% at the time of assay. The current response was obtained at a sampling frequency of 25 kHz, and noise was removed with a 3 kHz low-pass filter. The holding potential was −100 mV. Correction of the leakage current was carried out by applying a step pulse of −120 mV before the test pulse. In order to investigate inhibitory action of the test compound, the following test pulse was given: Namely, after depolarizing pulse of −10 mV was applied for 50 milliseconds, it was fixed at −120 mV for 500 milliseconds; a potential at which about 30-40% of the channel was inactivated was maintained for 15 seconds, then fixed again at −120 mV for 100 milliseconds, and finally a −10 mV depolarization pulse was given for 50 milliseconds. Test pulses were given before and after the test compound addition.

Chain of Sodium channel protein type 9 subunit alpha (Q15858 whole entry): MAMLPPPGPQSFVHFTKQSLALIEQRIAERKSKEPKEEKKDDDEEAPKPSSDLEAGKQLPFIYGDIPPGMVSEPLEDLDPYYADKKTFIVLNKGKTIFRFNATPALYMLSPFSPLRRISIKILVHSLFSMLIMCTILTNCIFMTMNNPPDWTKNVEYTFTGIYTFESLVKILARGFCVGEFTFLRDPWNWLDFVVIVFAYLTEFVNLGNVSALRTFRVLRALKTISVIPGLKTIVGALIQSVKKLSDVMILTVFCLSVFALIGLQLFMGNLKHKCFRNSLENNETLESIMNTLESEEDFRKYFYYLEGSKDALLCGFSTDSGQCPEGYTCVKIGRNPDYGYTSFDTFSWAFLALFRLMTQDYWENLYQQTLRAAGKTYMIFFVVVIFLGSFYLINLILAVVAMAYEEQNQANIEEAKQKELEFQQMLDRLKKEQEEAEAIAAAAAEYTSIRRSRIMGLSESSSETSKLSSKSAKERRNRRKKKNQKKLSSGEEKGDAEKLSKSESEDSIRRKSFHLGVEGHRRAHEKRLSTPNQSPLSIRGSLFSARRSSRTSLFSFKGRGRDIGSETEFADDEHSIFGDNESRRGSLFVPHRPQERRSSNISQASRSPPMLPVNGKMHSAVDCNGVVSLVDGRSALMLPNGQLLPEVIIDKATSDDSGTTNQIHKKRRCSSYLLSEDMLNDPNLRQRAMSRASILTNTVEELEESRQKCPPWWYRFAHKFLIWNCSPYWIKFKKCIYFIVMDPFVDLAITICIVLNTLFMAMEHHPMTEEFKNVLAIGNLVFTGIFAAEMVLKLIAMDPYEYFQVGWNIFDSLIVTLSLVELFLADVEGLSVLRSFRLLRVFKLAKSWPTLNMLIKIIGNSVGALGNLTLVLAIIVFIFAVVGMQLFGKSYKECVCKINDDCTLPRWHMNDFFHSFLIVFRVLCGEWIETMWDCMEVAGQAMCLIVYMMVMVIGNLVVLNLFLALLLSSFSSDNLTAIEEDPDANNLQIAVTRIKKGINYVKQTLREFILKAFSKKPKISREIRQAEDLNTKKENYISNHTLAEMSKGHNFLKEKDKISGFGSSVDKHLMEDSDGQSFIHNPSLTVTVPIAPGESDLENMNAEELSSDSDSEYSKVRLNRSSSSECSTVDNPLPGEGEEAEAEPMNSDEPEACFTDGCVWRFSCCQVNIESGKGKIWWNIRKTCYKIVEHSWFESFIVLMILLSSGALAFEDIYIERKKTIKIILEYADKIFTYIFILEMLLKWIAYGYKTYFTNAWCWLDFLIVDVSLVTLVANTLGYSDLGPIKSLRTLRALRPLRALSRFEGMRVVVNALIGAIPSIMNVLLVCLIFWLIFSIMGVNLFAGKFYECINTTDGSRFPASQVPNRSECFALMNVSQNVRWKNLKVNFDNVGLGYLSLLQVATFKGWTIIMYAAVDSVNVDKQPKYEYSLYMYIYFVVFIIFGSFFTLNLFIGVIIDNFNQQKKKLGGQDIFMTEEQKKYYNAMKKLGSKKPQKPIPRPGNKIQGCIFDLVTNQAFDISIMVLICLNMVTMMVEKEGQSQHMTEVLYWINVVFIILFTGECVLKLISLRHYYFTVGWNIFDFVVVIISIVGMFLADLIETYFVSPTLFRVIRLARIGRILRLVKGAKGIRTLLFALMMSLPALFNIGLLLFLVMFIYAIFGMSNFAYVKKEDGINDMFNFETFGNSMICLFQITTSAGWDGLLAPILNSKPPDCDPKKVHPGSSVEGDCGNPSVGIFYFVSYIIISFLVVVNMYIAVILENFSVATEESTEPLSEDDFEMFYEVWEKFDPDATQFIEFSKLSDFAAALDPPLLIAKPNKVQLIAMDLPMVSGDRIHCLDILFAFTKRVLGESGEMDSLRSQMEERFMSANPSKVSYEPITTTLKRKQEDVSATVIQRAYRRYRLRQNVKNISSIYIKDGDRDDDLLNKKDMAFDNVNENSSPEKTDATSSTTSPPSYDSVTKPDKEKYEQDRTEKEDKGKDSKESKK

| IC50 [nM] | SMILES |
| --- | --- |
| < 1000 | O=C(N[C@H]1COc2ccc(Br)cc2C1)c1cc2n(n1)CC(C(F)(F)F)O2 (some centres not stated) [US12421225, Example 445] |
| < 1000 | N#Cc1ccc2c(c1)C[C@@H](NC(=O)c1cc3n(n1)C[C@@H](CCCOC(F)(F)F)O3)CO2 (single isomer, unassigned; isomer B) [US12421225, Example 247 (isomer B)] |

The remaining lines, values behind:

| SMILES | IC50 [nM] |
| --- | --- |
| N#Cc1ccc2c(c1)C[C@@H](NC(=O)c1cc3n(n1)CC[C@@H](COCC1(F)CC1)O3)CO2 (single isomer, unassigned; isomer B) [US12421225, Example 552 (isomer B)] | ≤ 10000 |
| O=C(N[C@H]1COc2ccc(-c3ccccn3)cc2C1)c1cc2n(n1)CC[C@@H](COCC1CC1)O2 (single isomer, unassigned; isomer B) [US12421225, Example 111 (isomer B)] | < 1000 |
| O=C(N[C@H]1COc2ccc(CC(F)F)cc2C1)c1cc2n(n1)CC[C@@H](COCC(F)(F)F)O2 (single isomer, unassigned; isomer B) [US12421225, Example 127 (isomer B)] | < 1000 |
| N#Cc1ccc2c(c1)C[C@@H](NC(=O)c1cc3n(n1)CCC(CC1CC1)O3)CO2 (single isomer, unassigned) [US12421225, Example 97 (isomer B)] | < 1000 |
| CC[C@@H]1CCn2nc(C(=O)N[C@H]3COc4ccc(C#N)cc4C3)cc2O1 (single isomer, unassigned; isomer B) [US12421225, Example 92 (isomer B)] | < 1000 |
